This note sets out measurements from ChEMBL document CHEMBL1128611, “Evolution of a series of non-quinoline leukotriene D4 receptor antagonist; synthesis and sar of benzothiazoles and thiazoles substituted benzyl alcohols as potent LTD4 antagonists” (Bioorg Med Chem Lett, 1995).

“And” between values parts separate entries of the source, which are not always exact repeats. Identical values can stand only once.

In assay [1] the target is T1, Cysteinyl leukotriene receptor 1 (Cavia porcellus, UniProt Q2NNR5).
T1 sequence (Q2NNR5 whole entry): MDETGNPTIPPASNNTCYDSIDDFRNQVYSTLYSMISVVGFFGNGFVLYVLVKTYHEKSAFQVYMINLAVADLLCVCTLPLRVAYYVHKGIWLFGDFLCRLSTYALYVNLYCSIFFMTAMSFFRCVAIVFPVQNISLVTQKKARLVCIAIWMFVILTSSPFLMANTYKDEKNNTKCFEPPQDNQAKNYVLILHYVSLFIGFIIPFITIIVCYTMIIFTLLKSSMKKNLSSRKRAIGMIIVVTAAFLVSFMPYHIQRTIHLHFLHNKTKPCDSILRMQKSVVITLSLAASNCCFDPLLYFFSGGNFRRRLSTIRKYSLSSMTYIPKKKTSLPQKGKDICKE
Kind of assay: Inhibition of [3H]LTD4 binding on guinea-pig lung membranes. It counts as tissue-based, Membrane.

The test system of assay [2] is Monkey. Description: Inhibition of LTD4-induced bronchoconstriction in conscious squirrel monkey. The assay is classed as functional.
Assay [3] deals with Monkey. Description: […] inhibition of peptidoleukotriene -induced reduction in dynamic compliance in conscious squirrel monkey at a dose of 0.1 mg/Kg. It counts as functional.
The species entered for the next assay is Cavia porcellus. Description: Inhibition of LTD4-induced contraction of guinea-pig tracheal chains. The assay is classed as functional, Trachea.
For assay [4], the system named is Mus musculus. Kind of assay: […] effect on peroximal enzyme induction (PEI) over control animals (mice) after 4 days dosing at 400 mg/Kg perorally. The assay is classed as functional.
The test system of assay [5] is Mus musculus. Kind of assay: […] effect on the liver weight in mice after 4 days dosing at 400 mg/Kg perorally. It counts as functional.
The subject of assay [6] is Monkey. Description: […] inhibition of peptidoleukotriene -induced reduction in dynamic compliance in conscious squirrel monkey at a dose of 0.03 mg/Kg. It counts as functional.
For assay [7], the system named is Mus musculus. Kind of assay: Compound was evaluated for its effect on the liver weight in mice after 4 days dosing at 400 mg/Kg perorally. The assay is classed as functional.

One may read the IC50 as the concentration that gives 50% inhibition. Take `CC(C)(O)c1ccccc1CC[C@@H](SCC1(CC(=O)O)CC1)c1cccc(/C=C/c2nc(-c3ccc(F)cc3)cs2)c1`: in assay [1], the IC50 is 6.7 nM and 15.4 nM.

In assay [1], `CC(C)(O)c1ccccc1CC[C@@H](SCC1(CC(=O)O)CC1)c1cccc(/C=C/c2nc3ccccc3s2)c1` gave an IC50 of 16.8 nM.

Consider `CC(C)(O)c1ccccc1CC[C@@H](SCC1(CC(=O)O)CC1)c1cccc(/C=C/c2nc(-c3ccc(Cl)cc3)cs2)c1`, for which the IC50 in assay [1] was 79.3 nM and 99.7 nM.

By pKb is commonly meant the Kb on a negative log10 scale, so that one unit is a factor of ten. The compound `CN(C)C(=O)CCS[C@H](SCCC(=O)O)c1cccc(/C=C/c2ccc3ccc(Cl)cc3n2)c1` [VERLUKAST] had an RL in the assay on Monkey [2] of 59%. Also, the Cdyn in the assay with Monkey [3] is 56%. The negative logarithm of the Kb (pKb) in the assay listed under Cavia porcellus was found to be 8.9. The compound further had an IC50 in assay [1] of 3.9 nM. Besides, the PEI in the assay on Mus musculus [4] is on record as 65. In addition, the Weight in the assay on Mus musculus [5] amounted to 0%.

Consider `CC(C)(O)c1ccccc1CC[C@@H](SCC1(CC(=O)O)CC1)c1cccc(/C=C/c2nc3cc(F)ccc3s2)c1`, for which the RL in the assay on Monkey [2] is reported as 73%. Moreover, the pKb in the assay listed under Cavia porcellus was determined as 8.8. The compound further had a 50% inhibitory concentration (IC50) in assay [1] of 3.3 nM. Moreover, in the assay with Mus musculus [4], the PEI turned out to be 120. In addition, in the assay on Monkey [6], the Cdyn is reported as 100%. The compound further registered a Weight in the assay with Mus musculus [5] of 12%.

Consider `Cc1sc(/C=C/c2cccc([C@@H](CCc3ccccc3C(C)(C)O)SCC3(CC(=O)O)CC3)c2)nc1C(C)C`, for which, in assay [1], the IC50 was 12.8 nM and 5.2 nM.

Regarding `CC(C)(O)c1ccccc1CC[C@@H](SCC1(CC(=O)O)CC1)c1cccc(/C=C/c2nc(C3CCC3)cs2)c1`, the IC50 in assay [1] was 0.6 nM and 0.5 nM.

With `CC(C)(O)c1ccccc1CC[C@@H](SCC1(CC(=O)O)CC1)c1cccc(/C=C/c2nc(C3CCCCC3)cs2)c1`, the half-maximal inhibitory concentration (IC50) in assay [1] amounted to 2.1 nM.

For `CC(C)(O)c1ccccc1CC[C@@H](SCC1(CC(=O)O)CC1)c1cccc(/C=C/c2nc3c(s2)CCC3)c1`, the IC50 in assay [1] was 3 nM and 4.6 nM.

In the assay with Monkey [2], `CC(C)c1csc(/C=C/c2cccc([C@@H](CCc3ccccc3C(C)(C)O)SCC3(CC(=O)O)CC3)c2)n1` returned an RL of 40%. This compound also displayed a Weight in the assay with Mus musculus [7] of 9%. Also, in the assay listed under Cavia porcellus, the negative-log Kb (pKb) was determined as 9.1. Further, the IC50 in assay [1] is 1.9 nM. This compound also returned a PEI in the assay with Mus musculus [4] of 62. In addition, the Cdyn in the assay on Monkey [6] is on record as -8%.

Turning to `CC(C)(O)c1ccccc1CC[C@@H](SCC1(CC(=O)O)CC1)c1cccc(/C=C/c2nc3cc(Cl)ccc3s2)c1`, the half-inhibitory concentration (IC50) in assay [1] is 7.7 nM and 6 nM.

For `CC(C)(O)c1ccccc1CC[C@@H](SCC1(CC(=O)O)CC1)c1cccc(/C=C/c2nc(CSc3ccccc3)cs2)c1`, in assay [1], the concentration for half-maximal inhibition (IC50) came to 42.2 nM.

Consider `CC(CC(F)(F)F)c1csc(/C=C/c2cccc([C@@H](CCc3ccccc3C(C)(C)O)SCC3(CC(=O)O)CC3)c2)n1` (some centres undefined), for which the IC50 in assay [1] was 0.7 nM and 1 nM.

In assay [1], `COc1ccc2nc(/C=C/c3cccc([C@@H](CCc4ccccc4C(C)(C)O)SCC4(CC(=O)O)CC4)c3)sc2c1` returned a half-maximal inhibitory concentration (IC50) of 47.6 nM.

Regarding `CC(C)(O)c1ccccc1CC[C@@H](SCC1(CC(=O)O)CC1)c1cccc(/C=C/c2nc(C3CCCC3)cs2)c1`, the IC50 in assay [1] is 1.4 nM and 0.8 nM.

As to `CC(C)c1nc(/C=C/c2cccc([C@@H](CCc3ccccc3C(C)(C)O)SCC3(CC(=O)O)CC3)c2)sc1Cl`, in assay [1], the IC50 is 170 nM and 197 nM.

On to `CC(C)(O)c1ccccc1CC[C@@H](SCC1(CC(=O)O)CC1)c1cccc(/C=C/c2nccs2)c1`, for which the half-inhibitory concentration (IC50) in assay [1] is 381 nM.

In the case of `COc1ccc(-c2csc(/C=C/c3cccc([C@@H](CCc4ccccc4C(C)(C)O)SCC4(CC(=O)O)CC4)c3)n2)cc1`, in assay [1], the half-maximal inhibitory concentration (IC50) was 98.7 nM and 138 nM.

As to `CC(C)(O)c1ccccc1CC[C@@H](SCC1(CC(=O)O)CC1)c1cccc(/C=C/c2nc3cc(C(F)(F)F)ccc3s2)c1`, the half-inhibitory concentration (IC50) in assay [1] was 7.5 nM and 11.6 nM.

On to `CC(C)(O)c1ccccc1CC[C@@H](SCC1(CC(=O)O)CC1)c1cccc(/C=C/c2nc(C3CC3)cs2)c1`, for which, in assay [1], the IC50 is 1.7 nM and 3.3 nM.

The compound `CC(C)(O)c1ccccc1CC[C@@H](SCC1(CC(=O)O)CC1)c1cccc(/C=C/c2nc3c(s2)CCCC3)c1` yielded an IC50 in assay [1] of 1.5 nM.

In the case of `CC(C)(O)c1ccccc1CC[C@@H](SCC1(CC(=O)O)CC1)c1cccc(/C=C/c2nc3cc(F)c(F)cc3s2)c1`, in assay [1], the half-inhibitory concentration (IC50) is 0.8 nM.

`CC(C)(C)c1csc(/C=C/c2cccc([C@@H](CCc3ccccc3C(C)(C)O)SCC3(CC(=O)O)CC3)c2)n1`: in assay [1], the IC50 is 2 nM and 3.3 nM.

On to `CC(C)(O)c1ccccc1CC[C@@H](SCC1(CC(=O)O)CC1)c1cccc(/C=C/c2nc(-c3ccccc3)cs2)c1`, for which the half-maximal inhibitory concentration (IC50) in assay [1] was 11 nM and 6.7 nM.
